Assay results published in US8173682B2, “Substituted pyridones as inhibitors of poly(ADP-ribose) polymerase (PARP)” (Aventis Pharmaceuticals Inc., priority 2004, dated 2012).
Counter-ions that a name gives are not always drawn.

Biological target: T1, recombinant human PARP (PARP1) (Homo sapiens, UniProt P09874)
T1 construct: Full length human PARP (PARP1) is assembled from PCR fragments; His6 tag with TEV site, from the pFastBac-HTb vector (own knowledge of the vector); made in house; host or cells: insect cells, baculovirus (Bac-to-Bac, Gibco-BRL)
T1 sequence (P09874 whole entry, the tested form may be a part): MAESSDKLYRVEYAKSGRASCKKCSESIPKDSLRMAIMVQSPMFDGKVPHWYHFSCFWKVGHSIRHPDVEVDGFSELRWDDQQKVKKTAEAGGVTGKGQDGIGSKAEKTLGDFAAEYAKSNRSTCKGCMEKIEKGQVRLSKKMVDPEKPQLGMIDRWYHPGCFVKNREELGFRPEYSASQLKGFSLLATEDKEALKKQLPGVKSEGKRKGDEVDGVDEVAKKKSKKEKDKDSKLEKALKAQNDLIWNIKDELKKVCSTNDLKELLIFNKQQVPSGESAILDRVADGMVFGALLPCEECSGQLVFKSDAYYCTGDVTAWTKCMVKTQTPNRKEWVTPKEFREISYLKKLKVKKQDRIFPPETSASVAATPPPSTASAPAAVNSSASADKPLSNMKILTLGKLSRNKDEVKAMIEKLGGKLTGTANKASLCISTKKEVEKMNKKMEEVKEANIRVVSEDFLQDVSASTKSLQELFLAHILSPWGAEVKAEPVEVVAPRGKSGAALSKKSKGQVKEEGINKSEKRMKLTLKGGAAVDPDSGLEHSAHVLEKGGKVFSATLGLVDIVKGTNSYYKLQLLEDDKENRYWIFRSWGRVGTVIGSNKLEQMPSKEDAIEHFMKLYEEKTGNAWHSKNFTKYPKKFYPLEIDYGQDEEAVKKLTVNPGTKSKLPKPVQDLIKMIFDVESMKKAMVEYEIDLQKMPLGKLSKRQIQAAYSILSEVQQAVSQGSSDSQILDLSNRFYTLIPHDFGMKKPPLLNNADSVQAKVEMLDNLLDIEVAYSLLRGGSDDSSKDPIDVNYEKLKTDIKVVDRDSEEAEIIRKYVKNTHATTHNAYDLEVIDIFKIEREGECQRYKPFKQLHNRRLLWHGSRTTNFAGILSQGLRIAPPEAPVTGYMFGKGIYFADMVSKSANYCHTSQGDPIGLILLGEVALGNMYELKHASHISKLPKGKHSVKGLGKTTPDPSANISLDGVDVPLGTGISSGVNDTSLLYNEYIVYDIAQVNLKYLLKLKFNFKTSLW
Assay: PARP enzyme assay, Method A (radioactivity or 'ELISA' enzyme assay with partially purified enzyme)
Format: biochemical
Conditions: recombinant human PARP preparation, radioactive or ELISA enzyme assay
Excerpt: Two different methods are employed in determining the activity of the compounds of this invention in inhibiting the activity of PARP enzyme, designated as Method A and Method B respectively as set forth below.
Method A: Cloning and Expression, and Partial Purification of Recombinant Human PARP:
Full length human PARP (PARP1) is assembled from PCR fragments of a clone from a human brain cDNA library and two Incyte clones. The PARP gene (3046 bp) is sub-cloned into pFastBac-HTb vector to give PARP-pFastBac-HTb and the sequence of this clone is verified. PARP-pFastBac-HTb is expressed to obtain protein using the Bac-to-Bac expression protocol from Gibco-BRL. The recombinant virus generated is used to scale up the material for purification.
Cell pellets from cell broth of cells expressing PARP are treated with a cocktail of protease inhibitors and lysed by 4 freeze-thaw cycles. The material is suspended in 10 mM HEPES/0.1M NaCl/pH 7.2, stirred, and then centrifuged. A 40%-70% ammonium sulfate cut of protein pellet is obtained from the supernatant. The pellet is solubilized in 10 mM HEPES/pH 7.2 and centrifuged. The supernatant buffer is exchanged to 10 mM HEPES/pH 7.2/0.1M NaCl/25% glycerol by dialysis or with a desalting column. The enzyme preparation is stored at −20° C. until use.
The compounds of this invention are then tested with this enzyme preparation using either the radioactive enzyme assay or by the “ELISA” enzyme assay as set forth below.
Radioactivity Enzyme Assay:
Incorporation of radioactivity from labeled NAD into acid-precipitated protein is measured. The reaction mixture (volume 100 μL or 50 μL, in a test-tube or 96-well plate) contained 100 μg/mL calf thymus DNA (sonicated), 100 μg/mL histones, 100 mM Tris (pH 8.0), 1.0 mM DTT, 10 mM MgCl2, NAD (200 μM, 0.65 microcurie/mL), and varying amounts of enzyme. The reaction was incubated for 10 min at 37° C. or at room temperature for 60 min. The reaction was stopped and protein precipitated by addition of ice-cold trichloroacetic acid (TCA; 10% or 20% aqueous w/v). After brief storage in ice or at 4° C. for 2 hrs, the reaction mixture is filtered under vacuum through a glass fiber filter (2.5 cm disc, or 96-well filter plate). After washing with TCA and ethanol, the filter is dried and counted for tritium CPM after addition of scintillation fluid.
Incorporation of biotin-NAD into histone coated on plate is measured. A 96-well protein-binding EIA plate is coated with histone and blocked with bovine serum albumin. The reaction mixture (50 μL) contained DNA, buffer, enzyme, (test compound), and 250 μM of NAD and 5 μL of biotin-NAD (Trevigen). After reaction at room temperature the wells are washed and treated with Extravidin (Sigma). After incubation and washing color is developed with the peroxidase substrate TMB (Sigma). The TMB reaction is quenched with 2M sulfuric acid and the absorbance at 450 nm is read.

| IC50 | Compound |
| --- | --- |
| 0.2 µM | CCc1cc(-c2ccc(S(=O)(=O)NCc3ccc(N(C)C)nc3)s2)c(C)[nH]c1=O [Example 78, 5-(5-Ethyl-2-methyl-6-oxo-1,6-dihydropyridin-3-yl)thiophene-2-sulfonic acid [(6-dimethylaminopyridin-3-yl)methyl]amide hydrochloride] |
| 0.45 µM | CCc1cc(-c2ccc(S(=O)(=O)N3CCC(n4ccnc4)CC3)s2)c(C)[nH]c1=O [Example 79, 3-Ethyl-5-[5-(4-imidazol-1-yl)piperidine-1-sulfonyl)thiophen-2-yl]-6-methyl-1H-pyridin-2-one hydrochloride] |
| 0.43 µM | CCc1cc(-c2ccc(S(=O)(=O)NCc3nccn3C)s2)c(C)[nH]c1=O [Example 80, 5-[5-Ethyl-2-methyl-6-oxo-1,6-dihydropyridin-3-yl]thiophene-2-sulfonic acid (1-methylimidazol-2-yl)methyl]amide hydrochloride] |
| 0.54 µM | CCc1cc(-c2ccc(S(=O)(=O)N(C)C3CCN(C)C3)s2)c(C)[nH]c1=O (stereo not drawn) [Example 81, 5-[5-Ethyl-2-methyl-6-oxo-1,6-dihydropyridin-3-yl]thiophene-2-sulfonic acid methyl (1-methylpyrrolidin-3-yl)amide hydrochloride] |
| 0.48 µM | CCc1cc(-c2ccc(S(=O)(=O)NC3CCN(Cc4ccncc4)CC3)s2)c(C)[nH]c1=O [Example 82, 5-[5-Ethyl-2-methyl-6-oxo-1,6-dihydropyridin-3-yl]thiophene-2-sulfonic acid [1-(pyridin-4-yl)methyl(piperidin-4-yl)]amide dihydrochloride] |
| 2.8 µM | CCc1cc(-c2ccc(S(=O)(=O)NC3CCN(Cc4ncc[nH]4)CC3)s2)c(C)[nH]c1=O [Example 83, 5-[5-Ethyl-2-methyl-6-oxo-1,6-dihydropyridin-3-yl]thiophene-2-sulfonic acid (1-imidazol-2-yl)methyl(piperidin-4-yl)]amide dihydrochloride] |
| 1.6 µM | CCc1cc(-c2ccc(S(=O)(=O)NCCCCc3cccnc3)s2)c(C)[nH]c1=O [Example 84, 5-[5-Ethyl-2-methyl-6-oxo-1,6-dihydropyridin-3-yl]thiophene-2-sulfonic acid 4-(pyridin-3-ylbutyl)]amide hydrochloride] |
| 4.5 µM | CCc1cc(-c2ccc(S(=O)(=O)N3CCOCC3)s2)c(C)[nH]c1=O [Example 86, 3-Ethyl-6-methyl-5-[5-(morpholine-4-sulfonyl)thiophen-2-yl]-1H-pyridin-2-one] |
| 5.3 µM | CCc1cc(-c2ccc(S(=O)(=O)N3CCC(O)CC3)s2)c(C)[nH]c1=O [Example 87, 3-Ethyl-5-[5-(4-hydroxypiperidine-1-sulfonyl)thiophen-2-yl]-6-methyl-1H-pyridin-2-one] |
| 10.8 µM | CCOC(=O)N1CCN(S(=O)(=O)c2ccc(-c3cc(CC)c(=O)[nH]c3C)s2)CC1 [Example 89, 4-[5-(5-Ethyl-2-methyl-6-oxo-1,6-dihydropyridin-3-yl)thiophene-2-sulfonyl]piperazine-1-carboxylic acid ethyl ester] |
| 0.68 µM | CCc1cc(-c2ccc(S(=O)(=O)N3CCCC(CO)C3)s2)c(C)[nH]c1=O (stereo not drawn) [Example 90, 3-Ethyl-5-[5-(3-hydroxymethylpiperidine-1-sulfonyl)thiophen-2-yl]-6-methyl-1H-pyridin-2-one] |
| 2.9 µM | CCc1cc(-c2ccc(S(=O)(=O)N3CCN(CCO)CC3)s2)c(C)[nH]c1=O [Example 91, 3-Ethyl-5-{5-[4-(2-hydroxyethyl)piperazine-1-sulfonyl]thiophen-2-yl}-6-methyl-1H-pyridin-2-one hydrochloride] |
| 1.3 µM | CCc1cc(-c2ccc(S(=O)(=O)N3CCN(C)CC3)s2)c(C)[nH]c1=O [Example 92, 3-Ethyl-6-methyl-5-[5-(4-methylpiperazine-1-sulfonyl)thiophen-2-yl]-1H-pyridin-2-one] |
| 1.4 µM | CCc1cc(-c2ccc(S(=O)(=O)N3CCNCC3)s2)c(C)[nH]c1=O [Example 94, 3-Ethyl-6-methyl-5-[5-(piperazine-1-sulfonyl)thiophen-2-yl]-1H-pyridin-2-one hydrochloride] |
| 0.72 µM | CCc1cc(-c2ccc(S(=O)(=O)NCCCN(CC)CC)s2)c(C)[nH]c1=O [Example 96, 5-(5-Ethyl-2-methyl-6-oxo-1,6-dihydropyridin-3-yl)-thiophene-2-sulfonic acid (3-diethylaminopropyl)amide hydrochloride] |
| 0.18 µM | CCc1cc(-c2ccc(S(=O)(=O)NCc3ccco3)s2)c(C)[nH]c1=O [Example 97, 5-(5-Ethyl-2-methyl-6-oxo-1,6-dihydropyridin-3-yl)-thiophene-2-sulfonic acid (furan-2-ylmethyl)amide] |
| 0.41 µM | CCc1cc(-c2ccc(S(=O)(=O)NCCOc3ccccc3)s2)c(C)[nH]c1=O [Example 98, 5-(5-Ethyl-2-methyl-6-oxo-1,6-dihydropyridin-3-yl)-thiophene-2-sulfonic acid (2-phenoxyethyl)amide] |
| 1.3 µM | CCc1cc(-c2ccc(S(=O)(=O)N3CCN(CCOCCO)CC3)s2)c(C)[nH]c1=O [Example 99, 3-Ethyl-5-(5-{4-[2-(2-hydroxy-ethoxy)-ethyl]-piperazine-1-sulfonyl}-thiophen-2-yl)-6-methyl-1H-pyridin-2-one hydrochloride] |
| 2.2 µM | CCc1cc(-c2ccc(S(=O)(=O)N3CCN(Cc4ccccc4)CC3)s2)c(C)[nH]c1=O [Example 100, 5-[5-(4-Benzylpiperazine-1-sulfonyl)thiophen-2-yl]-3-ethyl-6-methyl-1H-pyridin-2-one hydrochloride] |
| 0.49 µM | CCc1cc(-c2ccc(S(=O)(=O)NCC3CCCN3CC)s2)c(C)[nH]c1=O (stereo not drawn) [Example 102, 5-(5-Ethyl-2-methyl-6-oxo-1,6-dihydropyridin-3-yl)-thiophene-2-sulfonic acid (1-ethyl-pyrrolidin-2-ylmethyl)amide hydrochloride] |
| 0.14 µM | CCc1cc(-c2ccc(S(=O)(=O)NCc3ccc4c(c3)OCO4)s2)c(C)[nH]c1=O [Example 103, 5-(5-Ethyl-2-methyl-6-oxo-1,6-dihydropyridin-3-yl)-thiophene-2-sulfonic acid (1,3-benzodioxol-5-ylmethyl)amide] |
| 2.5 µM | CCc1cc(-c2ccc(S(=O)(=O)N3CCN(Cc4ccc5c(c4)OCO5)CC3)s2)c(C)[nH]c1=O [Example 104, 5-[5-(4-1,3-Benzodioxol-5-ylmethylpiperazine-1-sulfonyl)-thiophen-2-yl]-3-ethyl-6-methyl-1H-pyridin-2-one hydrochloride] |
| 3.1 µM | CCc1cc(-c2ccc(S(=O)(=O)N3CCC[C@H]3CNc3ccccc3)s2)c(C)[nH]c1=O [Example 105, 3-Ethyl-6-methyl-5-[5-((S)-2-phenylaminomethylpyrrolidine-1-sulfonyl)-thiophen-2-yl]-1H-pyridin-2-one hydrochloride] |
| 0.43 µM | CCc1cc(-c2ccc(S(=O)(=O)N(C)Cc3ccco3)s2)c(C)[nH]c1=O [Example 106, 5-(5-Ethyl-2-methyl-6-oxo-1,6-dihydro-pyridin-3-yl)thiophene-2-sulfonic acid furan-2-yl-methyl-methylamide] |
| 1 µM | CCc1cc(-c2ccc(S(=O)(=O)N3CCC(C(=O)c4ccccc4)CC3)s2)c(C)[nH]c1=O [Example 108, 5-[5-(4-Benzoylpiperidine-1-sulfonyl)thiophen-2-yl]-3-ethyl-6-methyl-1H-pyridin-2-one] |
| 0.21 µM | CCc1cc(-c2ccc(S(N)(=O)=O)s2)c(C)[nH]c1=O [Example 111, 5-(5-ethyl-2-methyl-6-oxo-1,6-dihydro-pyridin-3-yl)-thiophene-2-sulfonic acid amide] |
| 1.2 µM | CCc1cc(-c2ccc(S(=O)(=O)NCC3CCCO3)s2)c(C)[nH]c1=O (stereo not drawn) [Example 112, 5-(5-Ethyl-2-methyl-6-oxo-1,6-dihydropyridin-3-yl)thiophene-2-sulfonic acid (tetrahydrofuran-2-ylmethyl)amide] |
